The values that follow are results of earlier work, collected in patent publication US20240197617A1, “ANTI-AGING COSMETIC COMPOSITION BASED ON RESVERATROL AND MAGNOLIA” (Tomcat International Limited, priority 2021, published 2024).

The data set deals with TET enzymes. The following applies: study carried out on a mouse.

Take `C=CCc1ccc(O)c(-c2ccc(O)c(CC=C)c2)c1` [honokiol]: the “Effect on activity of TET enzymes” value is listed as “stimulated the activity of TET enzymes”.
